Entries after “also recorded” stand apart in the source; their conditions may differ.
Biological target: T1, mechanosensitive channel of large conductance (MscL) (Mycobacterium tuberculosis, UniProt P9WJN5)
T1 sequence (P9WJN5 1-151): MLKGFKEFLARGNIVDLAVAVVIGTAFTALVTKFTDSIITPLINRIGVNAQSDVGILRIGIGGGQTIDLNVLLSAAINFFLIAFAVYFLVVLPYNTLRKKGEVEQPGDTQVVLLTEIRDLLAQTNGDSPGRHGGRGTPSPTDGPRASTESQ
Assay: Gas-phase (collision-induced) unfolding IM-MS: stabilisation of MscL by bound phospholipid
Type: binding
Settings: +12 charge state, versus apo form

In the case of `CCCCCCCC/C=C\CCCCCCCC(=O)OC[C@H](COP(=O)(O)O[C@H]1C(O)C(O)C(O)[C@@H](OP(=O)(O)O)C1O)OC(=O)CCCCCCC/C=C\CCCCCCCC` (stereo partly shown) [PI], the “average stabilisation of MscL by bound phospholipid (resistance to gas-phase unfolding)” value is reported as “large increase in stability when binding multiple lipids, greater than all other phospholipids investigated; also recorded: Major cumulative effects on stability”.

Source: US20150346214A1, “DETECTION OF MEMBRANE PROTEINS” (priority 2012, published 2015)
